Experimental findings from US8580794B2 (AbbVie Inc., priority 2009, dated 2013) are described below.

pKi: −log10 of the molar value. Some results are limits rather than exact numbers.

The test concerns the target GST-Bc1-2 (Homo sapiens, UniProt P10415). In words: Time Resolved-Fluorescence Resonance Energy Transfer (TR-FRET) Bcl-2 binding assay with F-Bak peptide probe. To be noted: GST-Bcl-2 1 nM, F-Bak probe 100 nM, Tb-anti-GST 1 nM; '<' = below limit of detection; read-out: TR-FRET Bcl-2 Binding Ki. (In general: In TR-FRET formats the signal depends on donor and acceptor labels being close together.)

Sequence of GST-Bc1-2 (P10415 whole entry): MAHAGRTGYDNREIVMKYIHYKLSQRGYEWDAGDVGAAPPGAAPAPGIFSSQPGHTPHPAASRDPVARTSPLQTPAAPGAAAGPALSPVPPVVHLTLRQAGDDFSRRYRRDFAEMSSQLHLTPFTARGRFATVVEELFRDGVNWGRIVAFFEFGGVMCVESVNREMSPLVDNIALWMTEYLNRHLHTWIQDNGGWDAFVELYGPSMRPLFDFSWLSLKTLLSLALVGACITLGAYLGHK

Broadly, the pKi is the Ki on a negative log10 scale, so that one unit is a factor of ten. Consider `CN1CCN(Nc2ccc(S(=O)(=O)NC(=O)c3ccc(N4CCN(CC5=C(c6ccc(Cl)cc6)CC(C)(C)OC5)CC4)cc3Oc3cnc4[nH]ccc4c3)cc2[N+](=O)[O-])CC1` [Example 67, 4-(4-{[4-(4-chlorophenyl)-6,6-dimethyl-5,6-dihydro-2H-pyran-3-yl]methyl}piperazin-1-yl)-N-({4-[(4-methylpiperazin-1-yl)amino]-3-nitrophenyl}sulfonyl)-2-(1H-pyrrolo[2,3-b]pyridin-5-yloxy)benzamide], for which the pKi was above 11.00. As for `CC1(C)CCC(CN2CCN(c3ccc(C(=O)NS(=O)(=O)c4ccc(OCC#CCN5CCOCC5)c([N+](=O)[O-])c4)c(Oc4cnc5[nH]ccc5c4)c3)CC2)=C(c2ccc(Cl)cc2)C1` [Example 68, 4-(4-{[2-(4-chlorophenyl)-4,4-dimethylcyclohex-1-en-1-yl]methyl}piperazin-1-yl)-N-({4-[(4-morpholin-4-ylbut-2-ynyl)oxy]-3-nitrophenyl}sulfonyl)-2-(1H-pyrrolo[2,3-b]pyridin-5-yloxy)benzamide], the pKi was 10.92.

With `C#Cc1cc(S(=O)(=O)NC(=O)c2ccc(N3CCN(CC4=C(c5ccc(Cl)cc5)CC(C)(C)CC4)CC3)cc2Oc2cnc3[nH]ccc3c2)cnc1OCC1CCOCC1` [Example 69, 4-(4-{[2-(4-chlorophenyl)-4,4-dimethylcyclohex-1-en-1-yl]methyl}piperazin-1-yl)-N-{[5-ethynyl-6-(tetrahydro-2H-pyran-4-ylmethoxy)pyridin-3-yl]sulfonyl}-2-(1H-pyrrolo[2,3-b]pyridin-5-yloxy)benzamide], the pKi was 8.94. Turning to `CC1(C)CCC(CN2CCN(c3ccc(C(=O)NS(=O)(=O)c4ccc5nc[nH]c(=O)c5c4)c(Oc4cnc5[nH]ccc5c4)c3)CC2)=C(c2ccc(Cl)cc2)C1` [Example 70, 4-(4-{[2-(4-chlorophenyl)-4,4-dimethylcyclohex-1-en-1-yl]methyl}piperazin-1-yl)-N-[(4-oxo-3,4-dihydroquinazolin-6-yl)sulfonyl]-2-(1H-pyrrolo[2,3-b]pyridin-5-yloxy)benzamide], the pKi is 8.40. As for `O=C(NS(=O)(=O)c1ccc(N[C@H]2CC[C@H](N3CCOCC3)CC2)c([N+](=O)[O-])c1)c1ccc(N2CCN(CC3=C(c4ccc(Cl)cc4)CCC4(CCCC4)C3)CC2)cc1Oc1cnc2[nH]ccc2c1` [Example 71, Trans-4-(4-{[8-(4-chlorophenyl)spiro[4.5]dec-7-en-7-yl]methyl}piperazin-1-yl)-N-({4-[(4-morpholin-4-ylcyclohexyl)amino]-3-nitrophenyl}sulfonyl)-2-(1H-pyrrolo[2,3-b]pyridin-5-yloxy)benzamide], the pKi is 11.00. With `CO[C@H]1CC[C@@H](CNc2ccc(S(=O)(=O)NC(=O)c3ccc(N4CCN(CC5=C(c6ccc(Cl)cc6)CC(C)(C)OC5)CC4)cc3Oc3cnc4[nH]ccc4c3)cc2[N+](=O)[O-])CC1` [Example 72, Cis-4-(4-{[4-(4-chlorophenyl)-6,6-dimethyl-5,6-dihydro-2H-pyran-3-yl]methyl}piperazin-1-yl)-N-[(4-{[(4-methoxycyclohexyl)methyl]amino}-3-nitrophenyl)sulfonyl]-2-(1H-pyrrolo[2,3-b]pyridin-5-yloxy)benzamide], the pKi was above 11.00. As to `O=C(NS(=O)(=O)c1ccc(OCC2(F)CCOCC2)c([N+](=O)[O-])c1)c1ccc(N2CCN(CC3=C(c4ccc(Cl)cc4)CCC4(CCCC4)C3)CC2)cc1Oc1cnc2[nH]ccc2c1` [Example 73, 4-(4-{[8-(4-chlorophenyl)spiro[4.5]dec-7-en-7-yl]methyl}piperazin-1-yl)-N-({4-[(4-fluorotetrahydro-2H-pyran-4-yl)methoxy]-3-nitrophenyl}sulfonyl)-2-(1H-pyrrolo[2,3-b]pyridin-5-yloxy)benzamide], the pKi is above 11.00.

With `CC1(C)CCC(c2ccc(Cl)cc2)=C(CN2CCN(c3ccc(C(=O)NS(=O)(=O)c4ccc(NCC5CCOCC5)c([N+](=O)[O-])c4)c(Oc4cnc5[nH]ccc5c4)c3)CC2)C1` [Example 75, 4-(4-{[2-(4-chlorophenyl)-5,5-dimethylcyclohex-1-en-1-yl]methyl}piperazin-1-yl)-N-({3-nitro-4-[(tetrahydro-2H-pyran-4-ylmethyl)amino]phenyl}sulfonyl)-2-(1H-pyrrolo[2,3-b]pyridin-5-yloxy)benzamide], the pKi was above 11.00. The value for `CC1(C)CCC(c2ccc(Cl)cc2)=C(CN2CCN(c3ccc(C(=O)NS(=O)(=O)c4cnc(OCC5CCOCC5)c(C#N)c4)c(Oc4cnc5[nH]ccc5c4)c3)CC2)C1` [Example 76, 4-(4-{[2-(4-chlorophenyl)-5,5-dimethylcyclohex-1-en-1-yl]methyl}piperazin-1-yl)-N-{[5-cyano-6-(tetrahydro-2H-pyran-4-ylmethoxy)pyridin-3-yl]sulfonyl}-2-(1H-pyrrolo[2,3-b]pyridin-5-yloxy)benzamide] was 9.71; that for `CC1(C)CCC(CN2CCN(c3ccc(C(=O)NS(=O)(=O)c4ccc(OCC5COCCN5C(=O)OC(C)(C)C)c([N+](=O)[O-])c4)c(Oc4cnc5[nH]ccc5c4)c3)CC2)=C(c2ccc(Cl)cc2)C1` (centres unmarked) [Example 77, tert-butyl 3-{[4-({[4-(4-{[2-(4-chlorophenyl)-4,4-dimethylcyclohex-1-en-1-yl]methyl}piperazin-1-yl)-2-(1H-pyrrolo[2,3-b]pyridin-5-yloxy)benzoyl]amino}sulfonyl)-2-nitrophenoxy]methyl}morpholine-4-carboxylate] was 9.67; that for `CC1(C)CCC(CN2CCN(c3ccc(C(=O)NS(=O)(=O)c4ccc(OCC5COCCN5)c([N+](=O)[O-])c4)c(Oc4cnc5[nH]ccc5c4)c3)CC2)=C(c2ccc(Cl)cc2)C1` (centres unmarked) [Example 78, 4-(4-{[2-(4-chlorophenyl)-4,4-dimethylcyclohex-1-en-1-yl]methyl}piperazin-1-yl)-N-{[4-(morpholin-3-ylmethoxy)-3-nitrophenyl]sulfonyl}-2-(1H-pyrrolo[2,3-b]pyridin-5-yloxy)benzamide] was above 11.00. Turning to `O=C(NS(=O)(=O)c1ccc(NCC2CCOCC2)c([N+](=O)[O-])c1)c1ccc(N2CCN(CC3=C(c4ccc(Cl)cc4)CCC4(CCCC4)C3)CC2)cc1Oc1cnc2[nH]ccc2c1` [Example 79, 4-(4-{[8-(4-chlorophenyl)spiro[4.5]dec-7-en-7-yl]methyl}piperazin-1-yl)-N-({3-nitro-4-[(tetrahydro-2H-pyran-4-ylmethyl)amino]phenyl}sulfonyl)-2-(1H-pyrrolo[2,3-b]pyridin-5-yloxy)benzamide], the pKi was above 11.00. With `CC1(C)CCC(CN2CCN(c3ccc(C(=O)NS(=O)(=O)c4ccc(NC5CCN(S(C)(=O)=O)CC5)c([N+](=O)[O-])c4)c(Oc4cnc5[nH]ccc5c4)c3)CC2)=C(c2ccc(Cl)cc2)C1` [Example 80, 4-(4-{[2-(4-chlorophenyl)-4,4-dimethylcyclohex-1-en-1-yl]methyl}piperazin-1-yl)-N-[(4-{[1-(methylsulfonyl)piperidin-4-yl]amino}-3-nitrophenyl)sulfonyl]-2-(1H-pyrrolo[2,3-b]pyridin-5-yloxy)benzamide], the pKi was above 11.00. On to `CC1(C)CCC(CN2CCN(c3ccc(C(=O)NS(=O)(=O)c4ccc(NC5CCS(=O)(=O)CC5)c([N+](=O)[O-])c4)c(Oc4cnc5[nH]ccc5c4)c3)CC2)=C(c2ccc(Cl)cc2)C1` [Example 81, 4-(4-{[2-(4-chlorophenyl)-4,4-dimethylcyclohex-1-en-1-yl]methyl}piperazin-1-yl)-N-({4-[(1,1-dioxidotetrahydro-2H-thiopyran-4-yl)amino]-3-nitrophenyl}sulfonyl)-2-(1H-pyrrolo[2,3-b]pyridin-5-yloxy)benzamide], for which the negative logarithm of the Ki (pKi) was above 11.00.
